Measured values reported in doi:10.1101/2024.10.27.620470v1 (biorxiv, 2024).

biological target: G3BP1NTF-2-GFP (Homo sapiens, UniProt Q13283); test: fluorescence plate PPI inhibition assay; format: biochemical
Sequence (Q13283 1-139): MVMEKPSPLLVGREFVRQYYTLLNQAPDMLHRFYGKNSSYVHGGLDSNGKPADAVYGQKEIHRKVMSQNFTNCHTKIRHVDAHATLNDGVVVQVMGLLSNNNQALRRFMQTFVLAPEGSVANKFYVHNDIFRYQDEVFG

Row | Structure (SMILES) | IC50 [µM]
1 | CN1C[C@H](C(=O)N[C@]2(C)O[C@@]3(O)[C@@H]4CCCN4C(=O)[C@H](Cc4ccccc4)N3C2=O)C[C@@H]2c3cccc4[nH]cc(c34)C[C@H]21 [Dihydroergotamine] | 13.2 ± 5.8
2 | O=C1NCN(c2ccccc2)C12CCN(CCCC(c1ccc(F)cc1)c1ccc(F)cc1)CC2 [Fluspirilene] | 10.5 ± 1.8
3 | CNC(=O)c1c(F)cccc1Nc1nc(Nc2cc3c(cc2OC)CCN3C(=O)CN(C)C)nc2[nH]ccc12 [GSK1838705A] | 14.5 ± 4.9
4 | COc1ccc(Br)cc1S(=O)(=O)NC(=O)/C=C/c1ccccc1Cc1ccc2ccccc2c1 [L-798106] | 11.6 ± 4.5
5 | CC[C@H](NC(=O)c1c(C)c(-c2ccccc2)nc2ccccc12)c1ccccc1 [SB_222200] | 13 ± 0.6
